# Legend:
# [1] = tested on: S. pneumoniae D39V; assay: Bliss interaction score (quartile over a dose matrix) (fitness difference); higher = more antagonism (negative = synergy)
# How it was run: (§1)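 The Bliss score is observed minus expected fitness, where expected fitness is the product of the single-drug fitness values inferred from the combination data. Fitness is the OD595 at the onset of stationary phase over the plate's robust no-drug mean, capped at 1. Scores are summarised by quartiles over technical, biological and donor/recipient replicates.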
# [2] = tested on: B. subtilis 168; assay: as above
# How it was run: as §1
# [3] = tested on: S. aureus DSM 20231; assay: as above
# How it was run: as §1
# [4] = tested on: S. aureus Newman; assay: as above
# How it was run: as §1
# [5] = tested on: S. pneumoniae D39V; assay: fitness (endpoint OD595 vs no drug) (fraction); higher = more growth
# How it was run: (§2)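 With the first reading as background, OD595 was measured every 30 min for 14 h in 384-well plates kept at 37 °C and inoculated at OD595 0.01. TSB, LB Lennox or CY was the medium. Fitness is the optical density at the transition into stationary phase divided by the robust mean of no-drug control wells, with a cap of 1.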
# [6] = tested on: B. subtilis 168; assay: as above
# How it was run: as §2
# [7] = tested on: S. aureus Newman; assay: as above
# How it was run: as §2
# 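For Bliss interaction score (quartile over a dose matrix) in this document: first quartile when negative (synergy) and third quartile when positive (antagonism).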
# 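For fitness (endpoint OD595 vs no drug) in this document: OD595 on entry to stationary phase over no-drug wells; at most 1.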
structure (smiles),measurement,setting,value
O=C(O)c1cn(C2CC2)c2cc(N3CCNCC3)c(F)cc2c1=O [Ciprofloxacin] + C[n+]1ccc(-c2cc[n+](C)cc2)cc1 [Paraquat],Bliss interaction score,[1],0.0853
same,Bliss interaction score,[2],-0.0477
same,Bliss interaction score,[3],-0.0499
same,Bliss interaction score,[4],-0.0507
same,fitness,"[5]; first compound 0.125 µg/mL, partner 1.5 µg/mL",0.983
same,fitness,"[5]; first compound 0.125 µg/mL, partner 3 µg/mL",0.974
same,fitness,"[5]; first compound 0.125 µg/mL, partner 6 µg/mL",0.97
same,fitness,"[5]; first compound 0.25 µg/mL, partner 1.5 µg/mL",0.942
same,fitness,"[5]; first compound 0.25 µg/mL, partner 3 µg/mL",0.913
same,fitness,"[5]; first compound 0.25 µg/mL, partner 6 µg/mL",0.902
same,fitness,"[5]; first compound 0.5 µg/mL, partner 1.5 µg/mL",0.877
same,fitness,"[5]; first compound 0.5 µg/mL, partner 3 µg/mL",0.875
same,fitness,"[6]; first compound 0.0098 µg/mL, partner 1.25 µg/mL",0.895
same,fitness,"[6]; first compound 0.0098 µg/mL, partner 2.5 µg/mL",0.922
same,fitness,"[6]; first compound 0.0098 µg/mL, partner 5 µg/mL",0.788
same,fitness,"[6]; first compound 0.0195 µg/mL, partner 1.25 µg/mL",0.753
same,fitness,"[6]; first compound 0.0195 µg/mL, partner 2.5 µg/mL",0.657
same,fitness,"[6]; first compound 0.0195 µg/mL, partner 5 µg/mL",0.687
same,fitness,"[6]; first compound 0.039 µg/mL, partner 1.25 µg/mL",0.171
same,fitness,"[6]; first compound 0.039 µg/mL, partner 2.5 µg/mL",0.171
same,fitness,"[6]; first compound 0.039 µg/mL, partner 5 µg/mL",0.234
same,fitness,"[7]; first compound 0.0375 µg/mL, partner 1.25 µg/mL",0.662
same,fitness,"[7]; first compound 0.0375 µg/mL, partner 2.5 µg/mL",0.639
same,fitness,"[7]; first compound 0.0375 µg/mL, partner 5 µg/mL",0.642
same,fitness,"[7]; first compound 0.075 µg/mL, partner 1.25 µg/mL",0.674
same,fitness,"[7]; first compound 0.075 µg/mL, partner 2.5 µg/mL",0.635
same,fitness,"[7]; first compound 0.075 µg/mL, partner 5 µg/mL",0.663
same,fitness,"[7]; first compound 0.15 µg/mL, partner 1.25 µg/mL",0.033
same,fitness,"[7]; first compound 0.15 µg/mL, partner 2.5 µg/mL",0.0399
same,fitness,"[7]; first compound 0.15 µg/mL, partner 5 µg/mL",0.0549
O=C(O)c1cn(C2CC2)c2cc(N3CCNCC3)c(F)cc2c1=O [Ciprofloxacin] + Cc1cc(NS(=O)(=O)c2ccc(N)cc2)no1 [Sulfamethoxazol],Bliss interaction score,[1],0.0466
same,Bliss interaction score,[2],-0.0827
same,Bliss interaction score,[3],-0.0468
same,Bliss interaction score,[4],-0.0651
same,fitness,"[5]; first compound 0.125 µg/mL, partner 1 µg/mL",0.93
same,fitness,"[5]; first compound 0.125 µg/mL, partner 2 µg/mL",0.952
same,fitness,"[5]; first compound 0.125 µg/mL, partner 4 µg/mL",0.96
same,fitness,"[5]; first compound 0.25 µg/mL, partner 1 µg/mL",0.846
same,fitness,"[5]; first compound 0.25 µg/mL, partner 2 µg/mL",0.863
same,fitness,"[5]; first compound 0.25 µg/mL, partner 4 µg/mL",0.821
same,fitness,"[6]; first compound 0.0098 µg/mL, partner 0.5 µg/mL, one replicate",0.967
same,fitness,"[6]; first compound 0.0098 µg/mL, partner 1 µg/mL",0.89
same,fitness,"[6]; first compound 0.0098 µg/mL, partner 2 µg/mL",0.858
same,fitness,"[6]; first compound 0.0098 µg/mL, partner 4 µg/mL",0.913
same,fitness,"[6]; first compound 0.0195 µg/mL, partner 0.5 µg/mL, one replicate",0.88
same,fitness,"[6]; first compound 0.0195 µg/mL, partner 1 µg/mL",0.734
same,fitness,"[6]; first compound 0.0195 µg/mL, partner 2 µg/mL",0.702
same,fitness,"[6]; first compound 0.0195 µg/mL, partner 4 µg/mL",0.671
same,fitness,"[6]; first compound 0.039 µg/mL, partner 0.5 µg/mL, one replicate",0.376
same,fitness,"[6]; first compound 0.039 µg/mL, partner 1 µg/mL",0.0972
same,fitness,"[6]; first compound 0.039 µg/mL, partner 2 µg/mL",0.132
same,fitness,"[6]; first compound 0.039 µg/mL, partner 4 µg/mL",0.0479
same,fitness,"[7]; first compound 0.0375 µg/mL, partner 1 µg/mL",0.732
same,fitness,"[7]; first compound 0.0375 µg/mL, partner 2 µg/mL",0.715
same,fitness,"[7]; first compound 0.0375 µg/mL, partner 4 µg/mL",0.722
same,fitness,"[7]; first compound 0.075 µg/mL, partner 1 µg/mL",0.623
same,fitness,"[7]; first compound 0.075 µg/mL, partner 4 µg/mL",0.643
same,fitness,"[7]; first compound 0.078 µg/mL, partner 2 µg/mL, one replicate",0.76
same,fitness,"[7]; first compound 0.078 µg/mL, partner 4 µg/mL, one replicate",0.764
same,fitness,"[7]; first compound 0.078 µg/mL, partner 8 µg/mL, one replicate",0.708
same,fitness,"[7]; first compound 0.15 µg/mL, partner 1 µg/mL",0.124
same,fitness,"[7]; first compound 0.15 µg/mL, partner 2 µg/mL",0.0895
same,fitness,"[7]; first compound 0.15 µg/mL, partner 4 µg/mL",0.0354
same,fitness,"[7]; first compound 0.156 µg/mL, partner 2 µg/mL, one replicate",0.495
same,fitness,"[7]; first compound 0.156 µg/mL, partner 4 µg/mL, one replicate",0.475
same,fitness,"[7]; first compound 0.156 µg/mL, partner 8 µg/mL, one replicate",0.353
same,fitness,"[7]; first compound 0.312 µg/mL, partner 2 µg/mL, one replicate",0.0936
same,fitness,"[7]; first compound 0.312 µg/mL, partner 4 µg/mL, one replicate",0.0929
same,fitness,"[7]; first compound 0.312 µg/mL, partner 8 µg/mL, one replicate",0.0905

# Reference: the supplement of paper PMC10627819
